Source: EP0483631A1, “3-Oxy substituted isoxazolines, process for their preparation and their utilization against Endoparasites” (BAYER AG, priority 1990, dated 1992)

Columns and labels:
[1] = system: Trichostrongylus colubriformis; assay: In vivo nematode test, Trichostrongylus colubriformis / sheep (faecal egg count before and after treatment); design: species or system Schaf; conditions: experimentally infected sheep, treated after the prepatent period, pure active ingredient in gelatine capsules, oral, dose giving complete cessation of egg excretion, read-out: Dosis effectiva
Excerpt: Trichostrongylus colubriformis / Schaf
Experimentell mit Trichostrongylus colubriformis infizierte Schafe wurden nach Ablauf der Präpatenzzeit des Parasiten behandelt. Die Wirkstoffe wurden als reiner Wirkstoff in Gelatinekapseln oral appliziert.
Der Wirkungsgrad wird dadurch bestimmt, daß man die mit dem Kot ausgeschiedenen Wurmeier vor und nach der Behandlung quantitativ auszählt.
(§1) Ein völliges Sistieren der Eiausscheidung nach der Behandlung bedeutet, daß die Würmer abgetrieben wurden oder so geschädigt sind, daß sie keine Eier mehr produzieren (Dosis effectiva).
Geprüfte Wirkstoffe und wirksame Dosierungen (Dosis effectiva) sind aus der nachfolgenden Tabelle ersichtlich.

Haemonchus contortus = assay: In vivo nematode test, Haemonchus contortus / sheep (faecal count before and after treatment); design: species or system Schaf; conditions: experimentally infected sheep, treated after the prepatent period, pure active ingredient in gelatine capsules, oral, dose giving complete cessation of egg excretion, read-out: Dosis effectiva
Excerpt: Haemonchus contortus / Schaf
Experimentell mit Haemonchus contortus infizierte Schafe wurden nach Ablauf der Präpatenzzeit des Parasiten behandelt. Die Wirkstoffe wurden als reiner Wirkstoff in Gelatinekapseln oral appliziert.
Der Wirkungsgrad wird dadurch bestimmt, daß man die mit dem Kot ausgeschiedenen […] vor und nach der Behandlung quantitativ auszählt.
as §1
Geprüfte Wirkstoffe und wirksame Dosierungen (Dosis effectiva) sind aus der nachfolgenden Tabelle ersichtlich: […]

Compound | minimal effective dose [1] [mg/kg] | minimal effective dose (Haemonchus contortus) [mg/kg]
O=C(O)c1ccccc1C(=O)N[C@@H]1CON=C1OCc1cccc(Cl)c1 [Beispiel 2, (R)-N-[4-5-Dihydro-3-(-3-chlorphenyl)-methoxy-4-isoxazolyl]-phthalamidsäure] | 25 | 10
CC(C)OC1=NOCC1NC(=O)c1ccccc1C(=O)O (stereo not drawn) [Beispiel 3] | 25 | 10
COC1=NOC[C@H]1NC(=O)c1ccccc1C(=O)O [Beispiel 1, (R)-N-(4,5-Dihydro-3-methoxy-4-isoazolyl)-phthalamidsäure] | 25 | 10
